Test results as given in patent publication US6613932B1, “Prostaglandin derivatives” (Taisho Pharmaceutical Co., Ltd., priority 1999, dated 2003).

System: human vascular smooth muscle cells
Experiment: Determination of DNA synthesis inhibition activity (3H-thymidine intake) to human vascular smooth muscle cells
Format: cell-based
Conditions: for Growth inhibition rate (per cent to control): 1 × 10^−5 M compound added, 3H-thymidine intake after culturing 24 hours, compared with vehicle-treated group as control; for inhibiting activity on the growth of human vascular smooth muscle cells: summary in words of Table 1 (1 × 10^−5 M)
Description: Experiment [Determination of DNA synthesis inhibition activity of PGE1 derivatives to human vascular smooth muscle cells]
On a 24-well plate (manufactured by Corning Co.), 1×10^4 cells/well of quintic culture cells of vascular cells derived from normal human aorta (produced by Kurabo Co.) were inoculated and cultured for 2 days. The medium was exchanged from the growth medium (SG2: produced by Kurabo Co.) to the basal medium (SB2: produced by Kurabo Co.), and cultured for 24 hours, to which was added the growth medium (SG2) containing an ethanol solution of the test compound. ^3H-Thymidine (produced by Daiichi Chemicals Co.) was added in an amount of 0.01 mci/well and, after culturing for 24 hours, the cultured supernatant was removed by suction, followed by washing with a phosphate buffer solution (PBS). 5% Trichloroacetic acid (TCA) was added and, after allowing to stand at 4° C. for 20 minutes, the mixture was washed once with TCA. The mixture was washed with PBS, and dissolved in 0.5 M aqueous potassium hydroxide solution. Intake of ^3H-thymidine was determined using 20 μl of the aqueous potassium hydroxide solution dissolving the cells which incorporated ^3H-thymidine in the nucleus by means of a liquid scintillation counter (manufactured by Hewlett-Packard Co.).
Note: The test compounds were each used as an ethanol solution and compared with a vehicle-treated group as control.

Row | SMILES | Growth inhibition rate (per cent to control) | inhibiting activity on the growth of human vascular smooth muscle cells
1 | CCCC1(C(O)C/C=C/C2C(SCCO)CC(=O)C2CCCC/C=C/C(=O)OC)CCC1 [Compound 32, (2E,11R,16S)-11,15-Dideoxy-11-(2-hydroxyethylthio)-16-hydroxy-17,17-trimethylene-2,3-didehydro-PGE1 methyl ester] | 100 per cent to control | high inhibiting activity
2 | CCCC1(C(O)C/C=C/C2C(SCCO)CC(=O)C2CCCC/C=C/C(=O)OC)CCC1 [Compound 29, (2E,11R,16R)-11,15-Dideoxy-11-(2-hydroxyethylthio)-16-hydroxy-17,17-trimethylene-2,3-didehydro-PGE1 methyl ester] | 100 per cent to control | high inhibiting activity
3 | CCCC1(C(O)C/C=C/C2C(SCC(N)C(=O)OC)CC(=O)C2CCCCCCC(=O)OC)CCC1 [Compound 54, (11R,16S)-11,15-Dideoxy-11-[(2R)-2-methoxycarbonyl-2-aminoethylthio]-16-hydroxy-17,17-trimethylene-PGE1 methyl ester] | 100 per cent to control | high inhibiting activity
4 | CCCC1(C(O)C/C=C/C2C(SCCO)CC(=O)C2CCCCCCC(=O)OC)CCC1 [Compound 23, (11S,16S)-11,15-dideoxy-11-(2-hydroxyethylthio)-16-hydroxy-17,17-trimethylene-PGE1 methyl ester] | 91.5 per cent to control | high inhibiting activity
5 | CCCC1(C(O)C/C=C/C2C(SCCCO)CC(=O)C2CCCCCCC(=O)OC)CCC1 [Compound 41, (11R,16S)-11,15-Dideoxy-11-(3-hydroxypropylthio)-16-hydroxy-17,17-trimethylene-PGE1 methyl ester] | 93.2 per cent to control | high inhibiting activity
6 | CCCC1(C(O)C/C=C/C2C(SCC(N)C(=O)OC)CC(=O)C2CCCCCCC(=O)OC)CCC1 [Compound 55, (11S,16S)-11,15-dideoxy-11-[(2R)-2-methoxycarbonyl-2-aminoethylthio]-16-hydroxy-17,17-trimethylene-PGE1 methyl ester] | 94.3 per cent to control | high inhibiting activity
